Like-named read-outs stand apart in the source and are kept apart here. Numbered stars: 1 amine (or outer) side, 2 acyl side, 3 side chain; on linkers, the order of the positions; unused ones are H or OH. Square brackets hold non-standard residues; d marks the D form. Side chains are listed from the residue outwards. Peptide text beside a SMILES is read from it. * marks the point of attachment. C18 diacid = O=C(O)CCCCCCCCCCCCCCCCC(=O)*; γGlu = O=C(O)[C@H](CCC(=O)[*:2])N[*:1]; Palmitoyl = CCCCCCCCCCCCCCCC(=O)*; αMeF = C[C@](N)(Cc1ccccc1)C(=O)O; αMeK = C[C@](N)(CCCCN)C(=O)O; Lauroyl = CCCCCCCCCCCC(=O)*; αMeS = C[C@](N)(CO)C(=O)O; AEEA = NCCOCCOCC(=O)O; Aib = CC(C)(N)C(=O)O
Legend:
Type in all cases: cell-based
[1] = target: T1, human glucose-dependent insulinotropic peptide receptor (GIPR) (Homo sapiens, UniProt P48546); assay: cAMP assay, human GIPR cells
T1 construct: expressed in transfected cells
T1 sequence (P48546 22-466): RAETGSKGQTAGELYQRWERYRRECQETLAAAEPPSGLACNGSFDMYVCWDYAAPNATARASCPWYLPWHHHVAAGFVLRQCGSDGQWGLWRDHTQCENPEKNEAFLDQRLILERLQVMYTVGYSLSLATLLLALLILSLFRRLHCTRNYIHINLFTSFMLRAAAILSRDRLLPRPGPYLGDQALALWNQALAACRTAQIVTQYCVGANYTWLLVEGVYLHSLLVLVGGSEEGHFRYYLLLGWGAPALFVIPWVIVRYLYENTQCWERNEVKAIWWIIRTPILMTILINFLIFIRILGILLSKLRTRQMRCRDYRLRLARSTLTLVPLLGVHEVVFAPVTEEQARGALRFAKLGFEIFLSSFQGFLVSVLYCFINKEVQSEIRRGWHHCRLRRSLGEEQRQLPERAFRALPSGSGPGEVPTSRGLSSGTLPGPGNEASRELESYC
Procedure, shortened: (§1)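 Peptide-stimulated cAMP measured by two-step HTRF after a 30 min room-temperature incubation with receptor-expressing cells (hGLP-1R, hGIPR at 1×10^5 cells/ml; hGCGR at 2×10^5 cells/ml). Duplicate dilutions; EC50 from 4-parameter logistic fit of % Delta F.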

[2] = target: T2, human glucagon receptor (GCGR) (Homo sapiens, UniProt P47871); assay: cAMP assay, human GCGR cells
T2 construct: expressed in transfected cells
Procedure, shortened: as §1

GLP-1R (INS1e assay) = target: T3, GLP-1R (INS1e assay) (Rattus norvegicus, UniProt P32301); assay: INS1e assay, cAMP activity at GLP-1R
T3 construct: endogenous in cells; host or cells: INS-1E cells
T3 sequence (P32301 22-463): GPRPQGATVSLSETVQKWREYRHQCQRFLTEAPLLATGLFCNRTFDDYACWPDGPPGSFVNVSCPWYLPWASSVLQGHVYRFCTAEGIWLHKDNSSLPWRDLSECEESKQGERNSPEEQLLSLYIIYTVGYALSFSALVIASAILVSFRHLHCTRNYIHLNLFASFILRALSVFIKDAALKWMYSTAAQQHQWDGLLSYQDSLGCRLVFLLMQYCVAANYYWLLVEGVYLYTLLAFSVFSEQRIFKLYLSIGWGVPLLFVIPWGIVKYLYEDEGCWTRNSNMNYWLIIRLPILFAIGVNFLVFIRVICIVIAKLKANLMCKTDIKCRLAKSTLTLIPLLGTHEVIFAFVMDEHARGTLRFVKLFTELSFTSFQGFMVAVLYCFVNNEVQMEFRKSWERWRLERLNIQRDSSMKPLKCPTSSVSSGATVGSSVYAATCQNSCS
Description: cAMP levels are measured using a commercially available cAMP dynamic 2 HTRF kit (Cisbio, Cat #62AM4PEJ), following the two step protocol as per manufacturer's recommendations. In brief; anti-cAMP cryptate (donor fluorophore) and cAMP-d2 (acceptor fluorophore) are made up separately by diluting each 1/20 in conjugate & lysis buffer provided in the kit. 5 μL anti-cAMP cryptate is added to wells of the assay plate, and 5 μL cAMP-d2 is added to wells except non-specific binding (NSB) wells, to which conjugate and lysis buffer are added. […] EC50 values of the synthetic peptides determined in cAMP assays are then determined.

[3] = cAMP assay, first determination (n1), read-out: Primary assay EC50 GIP-R (n1)
[4] = cAMP assay, second determination (n2), read-out: Primary assay EC50 GIP-R (n2)
[5] = cAMP assay, first determination (n1), read-out: Primary assay EC50 Gluc-R (n1)
[6] = cAMP assay, second determination (n2), read-out: Primary assay EC50 Gluc-R (n2)
[7] = mono-lipidated peptides, mean of n1 and n2, read-out: INS1e assay EC50 Mean pM GLP-1R
[8] = mono-lipidated peptides, replicate n1, read-out: INS1e assay EC50 GLP-1R n1
[9] = mono-lipidated peptides, replicate n2, read-out: INS1e assay EC50 GLP-1R n2

T2 sequence (P47871 26-477): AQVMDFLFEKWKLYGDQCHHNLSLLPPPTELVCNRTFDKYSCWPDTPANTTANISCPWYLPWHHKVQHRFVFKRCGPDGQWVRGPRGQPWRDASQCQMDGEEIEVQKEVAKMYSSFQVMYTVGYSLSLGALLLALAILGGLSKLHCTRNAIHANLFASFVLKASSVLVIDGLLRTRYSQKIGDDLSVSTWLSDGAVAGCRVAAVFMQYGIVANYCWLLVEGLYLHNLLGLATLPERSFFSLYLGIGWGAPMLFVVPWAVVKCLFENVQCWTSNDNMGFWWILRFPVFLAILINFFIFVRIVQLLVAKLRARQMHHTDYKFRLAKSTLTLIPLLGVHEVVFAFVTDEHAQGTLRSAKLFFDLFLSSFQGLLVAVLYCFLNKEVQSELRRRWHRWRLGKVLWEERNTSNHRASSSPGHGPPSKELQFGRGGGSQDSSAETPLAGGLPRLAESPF

| SMILES | EC50 [1, 3] [nM] | EC50 [1, 4] [nM] | EC50 [2, 5] [nM] | EC50 [2, 6] [nM] | EC50 (GLP-1R (INS1e assay); [7]) [pM] | EC50 (GLP-1R (INS1e assay); [8]) [pM] | EC50 (GLP-1R (INS1e assay); [9]) [pM] | EC50 ([1]; tris-lipidated peptides, first replicate, read-out: Primary assay EC50 GIP-R (n1)) [nM] | EC50 ([2]; tris-lipidated peptides, second replicate, read-out: Primary assay EC50 Gluc-R (n2)) [nM] | EC50 (GLP-1R (INS1e assay); tris-lipidated peptides, mean of n1 and n2, read-out: INS1e assay EC50 Mean pM GLP-1R) [pM] | EC50 (GLP-1R (INS1e assay); tris-lipidated peptides, replicate n1, read-out: INS1e assay EC50 GLP-1R n1) [pM] | EC50 (GLP-1R (INS1e assay); tris-lipidated peptides, replicate n2, read-out: INS1e assay EC50 GLP-1R n2) [pM] |
| --- | --- | --- | --- | --- | --- | --- | --- | --- | --- | --- | --- | --- |
| CC[C@H](C)[C@H](NC(=O)[C@](C)(Cc1ccccc1)NC(=O)[C@H](CCC(=O)O)NC(=O)[C@](C)(CCCCN)NC(=O)[C@H](C)NC(=O)[C@H](C)NC(=O)[C@H](CCC(=O)O)NC(=O)CNC(=O)[C@H](CCC(=O)O)NC(=O)[C@H](CC(C)C)NC(=O)[C@](C)(Cc1ccccc1)NC(=O)[C@H](CO)NC(=O)[C@](C)(CO)NC(=O)[C@@H](NC(=O)[C@H](CC(=O)O)NC(=O)[C@H](CO)NC(=O)[C@@H](NC(=O)[C@](C)(Cc1ccccc1)NC(=O)[C@H](CO)NC(=O)CNC(=O)[C@H](CCC(=O)O)NC(=O)C(C)(C)NC(=O)[C@@H](N)Cc1c[nH]cn1)[C@@H](C)O)C(C)C)C(=O)N[C@@H](C)C(=O)N[C@@](C)(Cc1ccccc1)C(=O)N[C@H](C(=O)N[C@H](C(=O)N[C@@H](CCC(=O)O)C(=O)NCC(=O)NCC(N)=O)C(C)C)C(C)C [compound 43] (H-H[Aib]EGS[αMeF]TSDV[αMeS]S[αMeF]LEGEAA[αMeK]E[αMeF]IA[αMeF]VVEGG-NH2) | ≥ 31 | ≥ 31 | ≥ 31 | ≥ 31 | 13 | 16 | 10.5 | – | – | – | – | – |
| CCCCCCCCCCCCCCCCCC(=O)NCCOCCOCC(=O)NCCOCCOCC(=O)NCCOCCOCC(=O)NCCCC[C@H](NC(=O)[C@H](C)NC(=O)[C@H](C)NC(=O)[C@H](CCC(=O)O)NC(=O)CNC(=O)[C@H](CCC(=O)O)NC(=O)[C@H](CC(C)C)NC(=O)[C@](C)(Cc1ccccc1)NC(=O)[C@H](CO)NC(=O)[C@](C)(CO)NC(=O)[C@@H](NC(=O)[C@H](CC(=O)O)NC(=O)[C@H](CO)NC(=O)[C@@H](NC(=O)[C@](C)(Cc1ccccc1)NC(=O)[C@H](CO)NC(=O)CNC(=O)[C@H](CCC(=O)O)NC(=O)C(C)(C)NC(=O)[C@@H](N)Cc1c[nH]cn1)[C@@H](C)O)C(C)C)C(=O)N[C@@H](CCC(=O)O)C(=O)N[C@@H](Cc1ccccc1)C(=O)N[C@H](C(=O)N[C@@H](C)C(=O)N[C@@](C)(Cc1ccccc1)C(=O)N[C@H](C(=O)N[C@H](C(=O)N[C@@](C)(CCCCN)C(=O)NCC(=O)NCC(N)=O)C(C)C)C(C)C)[C@@H](C)CC [compound 54] | ≥ 26 | ≥ 26 | ≥ 26 | ≥ 26 | 6 | 2.67 | 8.37 | – | – | – | – | – |
| CC[C@H](C)[C@H](NC(=O)[C@](C)(Cc1ccccc1)NC(=O)[C@H](CCC(=O)O)NC(=O)[C@](C)(CCCCN)NC(=O)[C@H](C)NC(=O)[C@H](C)NC(=O)[C@H](CCC(=O)O)NC(=O)[C@H](CCCCNC(=O)COCCOCCNC(=O)COCCOCCNC(=O)CC[C@H](NC(=O)CCCCCCCCCCCCCCCCC(=O)O)C(=O)O)NC(=O)[C@H](CCC(=O)O)NC(=O)[C@H](CC(C)C)NC(=O)[C@](C)(Cc1ccccc1)NC(=O)[C@H](CO)NC(=O)[C@](C)(CO)NC(=O)[C@@H](NC(=O)[C@H](CC(=O)O)NC(=O)[C@H](CO)NC(=O)[C@@H](NC(=O)[C@](C)(Cc1ccccc1)NC(=O)[C@H](CO)NC(=O)CNC(=O)[C@H](CCC(=O)O)NC(=O)C(C)(C)NC(=O)[C@@H](N)Cc1c[nH]cn1)[C@@H](C)O)C(C)C)C(=O)N[C@@H](C)C(=O)N[C@@](C)(Cc1ccccc1)C(=O)N[C@H](C(=O)N[C@H](C(=O)N[C@@](C)(CCCCN)C(=O)NCC(=O)NCC(N)=O)C(C)C)C(C)C [compound 113] (H-H[Aib]EGS[αMeF]TSDV[αMeS]S[αMeF]LEK([AEEA-AEEA-γGlu-C18 diacid])EAA[αMeK]E[αMeF]IA[αMeF]VV[αMeK]GG-NH2; N-terminus assumed) | ≥ 25 | ≥ 24.9 | ≥ 25 | ≥ 24.9 | 1040 | 823 | 1260 | – | – | – | – | – |
| CCCCCCCCCCCC(=O)N[C@@H](CCC(=O)NCCOCCOCC(=O)NCCOCCOCC(=O)NCCCC[C@H](NC(=O)CNC(=O)[C@H](CCC(=O)O)NC(=O)[C@H](CC(C)C)NC(=O)[C@H](CCCCNC(=O)COCCOCCNC(=O)COCCOCCNC(=O)CC[C@H](NC(=O)CCCCCCCCCCC)C(=O)O)NC(=O)[C@H](CO)NC(=O)[C@](C)(CO)NC(=O)[C@@H](NC(=O)[C@H](CC(=O)O)NC(=O)[C@H](CO)NC(=O)[C@@H](NC(=O)[C@](C)(Cc1ccccc1)NC(=O)[C@H](CO)NC(=O)CNC(=O)[C@H](CCC(=O)O)NC(=O)C(C)(C)NC(=O)[C@@H](N)Cc1c[nH]cn1)[C@@H](C)O)C(C)C)C(=O)N[C@@H](C)C(=O)N[C@@H](C)C(=O)N[C@@](C)(CCCCN)C(=O)N[C@@H](CCC(=O)O)C(=O)N[C@@H](Cc1ccccc1)C(=O)N[C@H](C(=O)N[C@@H](C)C(=O)N[C@@H](Cc1ccccc1)C(=O)N[C@@H](CCCCNC(=O)COCCOCCNC(=O)COCCOCCNC(=O)CC[C@H](NC(=O)CCCCCCCCCCC)C(=O)O)C(=O)N[C@H](C(=O)N[C@@H](CCC(=O)O)C(=O)NCC(=O)NCC(N)=O)C(C)C)[C@@H](C)CC)C(=O)O [compound 480] (H-H[Aib]EGS[αMeF]TSDV[αMeS]SK([AEEA-AEEA-γGlu-Lauroyl])LEGK([AEEA-AEEA-γGlu-Lauroyl])AA[αMeK]EFIAFK([AEEA-AEEA-γGlu-Lauroyl])VEGG-NH2) | – | – | – | – | – | – | – | 20 | 20 | 6530 | 9370 | 3690 |
| CC[C@H](C)[C@H](NC(=O)[C@](C)(Cc1ccccc1)NC(=O)[C@H](CCC(=O)O)NC(=O)[C@](C)(CCCCN)NC(=O)[C@H](C)NC(=O)[C@H](C)NC(=O)[C@H](CCC(=O)O)NC(=O)CNC(=O)[C@H](CCC(=O)O)NC(=O)[C@H](CC(C)C)NC(=O)[C@H](CCCCNC(=O)COCCOCCNC(=O)COCCOCCNC(=O)CC[C@H](NC(=O)CCCCCCCCCCCCCCCCC(=O)O)C(=O)O)NC(=O)[C@H](CO)NC(=O)[C@](C)(CO)NC(=O)[C@@H](NC(=O)[C@H](CC(=O)O)NC(=O)[C@H](CO)NC(=O)[C@@H](NC(=O)[C@](C)(Cc1ccccc1)NC(=O)[C@H](CO)NC(=O)CNC(=O)[C@H](CCC(=O)O)NC(=O)C(C)(C)NC(=O)[C@@H](N)Cc1c[nH]cn1)[C@@H](C)O)C(C)C)C(=O)N[C@@H](C)C(=O)N[C@@](C)(Cc1ccccc1)C(=O)N[C@H](C(=O)N[C@H](C(=O)N[C@@](C)(CCCCN)C(=O)NCC(=O)NCC(N)=O)C(C)C)C(C)C [compound 116] | ≥ 26 | ≥ 25.6 | ≥ 26 | ≥ 25.6 | 1110 | 1610 | 610 | – | – | – | – | – |
| CCCCCCCCCCCCCCCC(=O)N[C@@H](CCC(=O)NCCCC[C@H](NC(=O)[C@H](CC(=O)O)NC(=O)[C@H](CO)NC(=O)[C@@H](NC(=O)[C@](C)(Cc1ccccc1)NC(=O)[C@H](CO)NC(=O)CNC(=O)[C@H](CCC(=O)O)NC(=O)C(C)(C)NC(=O)[C@@H](N)Cc1c[nH]cn1)[C@@H](C)O)C(=O)N[C@@](C)(CO)C(=O)N[C@@H](CO)C(=O)N[C@@](C)(Cc1ccccc1)C(=O)N[C@@H](CC(C)C)C(=O)N[C@@H](CCC(=O)O)C(=O)NCC(=O)N[C@@H](CCC(=O)O)C(=O)N[C@@H](C)C(=O)N[C@@H](C)C(=O)N[C@@](C)(CCCCN)C(=O)N[C@@H](CCC(=O)O)C(=O)N[C@@](C)(Cc1ccccc1)C(=O)N[C@H](C(=O)N[C@@H](C)C(=O)N[C@@](C)(Cc1ccccc1)C(=O)N[C@H](C(=O)N[C@H](C(=O)N[C@@](C)(CCCCN)C(=O)NCC(=O)NCC(N)=O)C(C)C)C(C)C)[C@@H](C)CC)C(=O)O [compound 90] (H-H[Aib]EGS[αMeF]TSDK([γGlu-Palmitoyl])[αMeS]S[αMeF]LEGEAA[αMeK]E[αMeF]IA[αMeF]VV[αMeK]GG-NH2) | ≥ 28 | ≥ 28 | ≥ 28 | ≥ 28 | 51 | 43.4 | 58.6 | – | – | – | – | – |
